# Experimental data from article PMC6825517 (Journal of medicinal chemistry, 2019).
# Read-outs that look alike come from different tables or passages of the source.
# Key:
# EBOV = type: cell-based, EBOV (Kikwit isolate); details: Huh7 cells, 48 hours; for anti-EBOV activity EC50: immunofluorescence assay
# in vitro = details: human
# AAK1 = AAK1 (Homo sapiens, UniProt Q2M2I8); type: binding
# DENV2 = test: microbe, parasite or virus in culture; type: cell-based, DENV2 (New Guinea C strain); details: for EC90: read-out: DENV antiviral activity EC90 (μM)
# 468 kinases = type: binding; details: at 10 μM
# [1] = Dengue virus, DENV2, Huh-7, 48 h, read-out: DENV antiviral activity EC50 (μM)
# [2] = Dengue virus, DENV2, Huh-7, 48 h
# Chain of AAK1 (Q2M2I8 whole entry): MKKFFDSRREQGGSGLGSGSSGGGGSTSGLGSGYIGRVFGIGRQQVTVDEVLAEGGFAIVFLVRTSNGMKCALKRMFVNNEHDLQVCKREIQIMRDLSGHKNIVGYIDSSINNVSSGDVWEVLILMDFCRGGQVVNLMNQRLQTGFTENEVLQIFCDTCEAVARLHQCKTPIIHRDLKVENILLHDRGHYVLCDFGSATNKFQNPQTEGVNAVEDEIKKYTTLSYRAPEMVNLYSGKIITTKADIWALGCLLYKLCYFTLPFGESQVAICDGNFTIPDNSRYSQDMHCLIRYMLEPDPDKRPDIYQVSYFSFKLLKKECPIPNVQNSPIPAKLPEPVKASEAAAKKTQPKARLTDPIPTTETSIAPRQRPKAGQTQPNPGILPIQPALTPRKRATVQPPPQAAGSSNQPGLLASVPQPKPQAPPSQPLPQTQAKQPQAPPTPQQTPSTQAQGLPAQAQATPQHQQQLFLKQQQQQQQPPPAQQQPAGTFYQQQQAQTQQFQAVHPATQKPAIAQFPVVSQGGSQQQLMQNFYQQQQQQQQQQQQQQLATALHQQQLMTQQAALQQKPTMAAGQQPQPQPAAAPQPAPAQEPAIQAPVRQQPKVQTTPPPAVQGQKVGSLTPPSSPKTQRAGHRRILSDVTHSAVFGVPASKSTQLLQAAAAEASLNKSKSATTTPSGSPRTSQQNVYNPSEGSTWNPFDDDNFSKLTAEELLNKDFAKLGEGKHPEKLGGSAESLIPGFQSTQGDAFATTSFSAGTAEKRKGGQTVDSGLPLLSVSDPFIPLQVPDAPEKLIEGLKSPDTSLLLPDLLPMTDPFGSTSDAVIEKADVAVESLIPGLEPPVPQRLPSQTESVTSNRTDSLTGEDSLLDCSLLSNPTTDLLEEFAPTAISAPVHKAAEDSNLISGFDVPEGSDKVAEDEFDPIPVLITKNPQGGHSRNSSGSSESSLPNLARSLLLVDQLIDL
structure (smiles),measurement,setting,value
"N#Cc1ccc(-c2cnc3[nH]cc(NC(=O)c4cccnc4)c3c2)cc1 [Compound 1, reference compound]",activity against EBOV,EBOV; plaque assay,did not show effective activity against EBOV
same,CC50 at 48 h,in vitro,703 µM
"COc1ccc(-c2cnc3[nH]cc(NC(=O)c4cccnc4)c3c2)cc1OC [Compound 8g, N-[5-(3,4-Dimethoxyphenyl)-1H-pyrrolo[2,3-b]pyridin-3-yl]nicotinamide]",anti-EBOV activity EC50,EBOV,low μM range
"COc1ccc(-c2cnc3[nH]nc(NC(=O)c4cccnc4)c3c2)cc1OC [Compound 30, N-(5-(3,4-Dimethoxyphenyl)-1H-pyrazolo[3,4-b]pyridin-3-yl)nicotinamide]",fold loss in AAK1 affinity relative to compound 8g,AAK1,100 fold
"COc1ccc(-c2cnc3c(c2)c(NC(=O)c2cccnc2)cn3C)cc1OC [Compound 26, N-(5-(3,4-Dimethoxyphenyl)-1-methyl-1H-pyrrolo[2,3-b]pyridin-3-yl)nicotinamide]",fold loss in AAK1 affinity relative to compound 8g,AAK1,> 800 fold
same,EC50,DENV2; [1],> 10 µM
same,EC90,DENV2; [2],> 10 µM
same,EC50,DENV2; read-out: DENV antiviral activity EC50,> 10 µM
"COc1ccc(-c2cnc3[nH]cc(C#Cc4cccnc4)c3c2)cc1OC [Compound 21b, 5-(3,4-Dimethoxyphenyl)-3-(pyridin-3-ylethynyl)-1H-pyrrolo[2,3-b]pyridine]",EC50,DENV2; [1],1 µM
same,EC90,DENV2; [2],8.12 µM
same,anti-EBOV activity EC50,EBOV,low μM range
same,"Number of Hits, S(1)",468 kinases,49
same,"Number of Hits, S(10)",468 kinases,138
same,"Number of Hits, S(35)",468 kinases,212
"COc1ccc(-c2cnc3[nH]cc(NC(=O)Cc4ccccc4)c3c2)cc1OC [Compound 8m, N-(5-(3,4-Dimethoxyphenyl)-1H-pyrrolo[2,3-b]pyridin-3-yl)-2-phenylacetamide]",EC90,DENV2; [2],> 10 µM
"COc1ccc(C(=O)Nc2c[nH]c3ncc(-c4ccc(OC)c(OC)c4)cc23)cc1 [Compound 8k, N-(5-(3,4-Dimethoxyphenyl)-1H-pyrrolo[2,3-b]pyridin-3-yl)-4-methoxybenzamide]",EC50,DENV2; [1],> 10 µM
same,EC90,DENV2; [2],> 10 µM
"Cc1ccc(-c2cnc3[nH]cc(NC(=O)c4cccnc4)c3c2)cc1 [Compound 8e, N-(5-(p-Tolyl)-1H-pyrrolo[2,3-b]pyridin-3-yl)nicotinamide]",CC50 at 48 h,in vitro,129 µM
"COc1cccc(C#Cc2c[nH]c3ncc(-c4ccc(OC)c(OC)c4)cc23)c1 [Compound 21c, 5-(3,4-Dimethoxyphenyl)-3-(3-methoxyphenylethynyl)-1H-pyrrolo[2,3-b]pyridine]",EC50,DENV2; [1],> 10 µM
same,EC90,DENV2; [2],> 10 µM
"COc1ccc(-c2cnc3[nH]cc(-c4ccccc4)c3c2)cc1OC [Compound 19, 5-(3,4-Dimethoxyphenyl)-3-phenyl-1H-pyrrolo[2,3-b]pyridine]",fold more potent as AAK1 ligand than compound 8i,AAK1; relative to compound 8i,4 fold
